The source of these data is a compilation of properties of binary mixtures (doi:10.1002/aic.14507).

This series is described as follows: xn = mol fraction of the nth substance listed. The note with it: 100 kPa.

For orientation: viscosity means the resistance of a fluid to flow. High values mean a thick fluid, low ones a thin fluid.

For the compound `CCCCCCCCn1cc[n+](C)c1.F[B-](F)(F)F` + O, the viscosity amounted to 42.67 mPa·s (303 K, x1 = 0.5482); 28.9 mPa·s (313 K, x1 = 0.5482); 24.3 mPa·s (318 K, x1 = 0.5482); 20.63 mPa·s (323 K, x1 = 0.5482).

Turning to `CCCC[n+]1ccn(C)c1.O=[N+]([O-])[O-]` + O, the viscosity is listed as 17.21 mPa·s (303 K, x1 = 0.4462); 35.74 mPa·s (303 K, x1 = 0.6298); 0.819 mPa·s (313 K, x1 = 0.0098); 0.971 mPa·s (313 K, x1 = 0.0219); 1.24 mPa·s (313 K, x1 = 0.037); 2.753 mPa·s (313 K, x1 = 0.1184). Further, the viscosity stood at 3.908 mPa·s (313 K, x1 = 0.1728); 12.64 mPa·s (313 K, x1 = 0.4462); 24.64 mPa·s (313 K, x1 = 0.6298); 11 mPa·s (318 K, x1 = 0.4462); 20.86 mPa·s (318 K, x1 = 0.6298); 9.66 mPa·s (323 K, x1 = 0.4462). The compound further displayed a viscosity (323 K, x1 = 0.6298) of 17.88 mPa·s.
